Data set [1] is described as follows: Example 2: daily doses of vanoxerine for 11 consecutive days, PK and hemodynamics. Format: in vivo, human.
Data set [2] in a line: Pharmacokinetic parameters from tests in dogs. Format: in vivo, dog. The text has this:
Vanoxerine is primarily eliminated from the body in urine, bile, and feces. Indeed, a substantial amount of the drug is expelled, unabsorbed into the feces. […] However, the long half-life of the drug may actually be utilized to minimize the continuous or regular dosing of the drug.

Data set [3] is described as follows: Example 3: daily vanoxerine for 14 days in healthy patients. It is filed as in vivo, human. As to the method: A standardized meal was served 15 minutes prior to each dosing.
Data set [4] in a line: Example 4: daily vanoxerine for 7 days. It is filed as in vivo, human.
The conditions of data set [5]: healthy subjects; cited from earlier work.
The subject of data set [6] is atrial fibrillation/atrial flutter. In words: Example 6: placebo-controlled study of conversion of recent onset symptomatic AF/AFL to sinus rhythm. It is filed as in vivo, human. As to the method:
The vanoxerine or identical appearing placebo was randomly assigned and administered in a double-blinded fashion.
Definition of “pure” atrial flutter: only Atrial Flutter (no AF) seen at −30, −15, and 0 time points. Conversion at any time within 24 hours.

These results are taken from patent US20160303113A1 (LAGUNA PHARMACEUTICALS ,INC., priority 2013, published 2016).

On to `Fc1ccc(C(OCCN2CCN(CCCc3ccccc3)CC2)c2ccc(F)cc2)cc1` [Vanoxerine, 1-[2-[bis(4-fluorophenyl)methoxy]ethyl]-4-(3-phenylpropyl)piperazine], for which the steady state reached in data set [1] (50, 75 and 100 mg daily doses) was at most 8 days. The “plasma levels at 24 hours” value in data set [1] (50, 75 and 100 mg doses) was “detectable”. Also, the “elimination from the plasma T112” value in data set [2] amounted to 22 h. Also, in data set [3] (25, 75, 125 mg daily for 14 days, healthy patients, after standardized meal), the adverse events result is on record as “No significant adverse events”. Besides, the “all patients achieved steady state after” value in data set [3] (repetitive dosing, all patients) lay in the range of 7 to 10 days. Further, the “systolic blood pressure and heart rate” value in data set [4] (100 mg daily for 7 days) and in data set [4] (150 mg daily for 7 days) was “increases” throughout. In data set [4] (50, 100, 150 mg daily for 7 days, all patients), the Steady-state levels achieved result is reported as “within one week”. Further, the “effects at higher doses (concentration difficulties, increase systolic blood pressure, asthenia, feeling of drug influence)” value in data set [5] is “some effects were seen”. In addition, the results for the “Adverse events: number of AEs reported” value in data set [6] (200 mg (22)), in data set [6] (300 mg (25)) and in data set [6] (400 mg (25)) were “reporting 8 AEs”, “reporting 12 AEs” and “reporting 23 AEs”, respectively. Moreover, the “Adverse events: number of SAEs” value is “(1 SAE)” in data set [6] (200 mg (22)) and “AEs (1 SAE)” in data set [6] (400 mg (25)). Further, the “Adverse events: subjects reporting AEs, N (%)” value in data set [6] (200 mg (22)) was 4 (18%) subjects; in data set [6] (300 mg (25)), 7 (28%) subjects; in data set [6] (400 mg (25)), 10 (40%) subjects. Besides, the tolerability result in data set [6] (all doses (200, 300, 400 mg)) is reported as “well tolerated at all doses”. In data set [6] (doses of 200, 300 and 400 mg), the “conversion to sinus rhythm of recent onset symptomatic AF/AFL, dose dependence” value is “highly statistically significant dose dependent increase”. Besides, the “relation of the two serious adverse events to study drug” value in data set [6] (one at 200 mg (upper respiratory infection), one at 400 mg (lower extremity edema secondary to amlodipine)) is recorded as “neither related to the study drug”.
